Experimental data as given in patent US7807202B2, “Compositions for treatment of viral-induced skin lesions and methods of using same” (priority 2003, dated 2010).

Experiments:
[1] = tested on: common warts; test: Case treatments of common warts on the hands by topical application (Examples 10-11); assay type: in vivo, human; conditions: Example 11, child, 15%
Text: A child presented with common verrucae on the dorsum of both hands involving the metacarpal-phalangeal joints for over 3 years. […] After 12 weeks, all warty lesions were gone. Twice a week the warts were gently scrubbed with a stiff nylon bristle brush before application of the tea tree oil emulsion to help remove the dead outer keratinized skin.
A child presented with common warts affecting the palms of both hands resistant to treatment. […] Twice weekly gentle scrubbing with a stiff nylon bristle brush before application of the emulsion to help remove the dead outer keratinized skin was performed.

[2] = tested on: Molluscum contagiosum; conditions: in vivo; cited from earlier work

Structure (SMILES): O=C(O)c1ccccc1O [Salicyclic acid]
- outcome of earlier conventional treatment of common warts [1]: the warts multiplied and spread
- outcome of earlier conventional treatment of common warts ([1]; listed as salicylic acid): failed to eradicate the viral lesions

Structure (SMILES): Nc1nc2c(ncn2COCCO)c(=O)[nH]1 [acyclovir]
- effect on lesions caused by Molluscum contagiosum [2]: no effect
